Source: patent US11078203B2 (OGEDA SA, priority 2017, dated 2021)

Experiments:
human NK-3 receptor [1] = molecular target: T1, human NK-3 receptor (Homo sapiens, UniProt P29371); experiment: cell-based
T1 sequence (P29371 1-465): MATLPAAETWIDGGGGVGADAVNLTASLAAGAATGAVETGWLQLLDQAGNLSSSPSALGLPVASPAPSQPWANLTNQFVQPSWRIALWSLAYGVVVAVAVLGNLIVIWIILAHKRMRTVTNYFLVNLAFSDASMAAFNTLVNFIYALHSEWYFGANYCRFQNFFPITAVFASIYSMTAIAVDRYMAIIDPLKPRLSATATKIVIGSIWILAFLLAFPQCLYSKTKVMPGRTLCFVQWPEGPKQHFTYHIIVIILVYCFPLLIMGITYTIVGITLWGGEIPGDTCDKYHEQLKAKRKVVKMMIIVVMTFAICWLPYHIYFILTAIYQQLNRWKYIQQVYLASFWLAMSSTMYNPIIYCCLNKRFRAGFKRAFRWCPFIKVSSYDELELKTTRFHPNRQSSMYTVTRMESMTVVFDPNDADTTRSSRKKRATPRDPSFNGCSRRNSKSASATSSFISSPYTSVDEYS
Description: Aequorin Assay with Human NK-3 Receptor.
The efficacy of compounds of the invention to inhibit NKA-mediated NK-3 receptor activation was assessed by an in vitro Aequorin functional assay. Chinese Hamster Ovary recombinant cells expressing the human NK-3 receptor and a construct that encodes the photoprotein apoaequorin were used for this assay. In the presence of the cofactor coelenterazine, apoaequorin emits a measurable luminescence that is proportional to the amount of intracellular (cytoplasmic) free calcium.
The antagonist activity of compounds of the invention is measured following pre-incubation (3 minutes) of the compound (at various concentrations) with the cells, followed by addition of the reference agonist (NKA) at a final concentration equivalent to the EC80 (3 nM) and recording of emitted light (FDSS 6000 Hamamatsu) over the subsequent 90-second period. The intensity of the emitted light is integrated using the reader software. Compound antagonist activity is measured based on the concentration-dependent inhibition of the luminescence response to the addition of Neurokinin A.

human NK-3 receptor [2] = molecular target: T1, human NK-3 receptor; experiment: 3H-SB222200 binding competition assay with human NK-3 receptor; design: expressed in transfected cells; membranes; details: read-out: Competitive binding assay with human NK-3 receptor hNK-3 (Ki)
Description: The affinity of compounds of the invention for the human NK-3 receptor was determined by measuring the ability of compounds of the invention to competitively and reversibly displace a well-characterized NK-3 radioligand in a concentration-dependent manner.
Membranes were prepared from Chinese hamster ovary recombinant cells stably expressing the human NK-3 receptor. The membranes were incubated with 5 nM ^3H-SB222200 (ARC) in a HEPES 25 mM/NaCl 0.1M/CaCl2 1 mM/MgCl2 5 mM/BSA 0.5%/Saponin 10 μg/ml buffer at pH 7.4 and various concentrations of compounds of the invention. The amount of ^3H-SB222200 bound to the receptor was determined after filtration by the quantification of membrane associated radioactivity using the TopCount-NXT reader (Packard).

- IC50 (human NK-3 receptor [1]): 0.013 µM
- Ki (human NK-3 receptor [2]): 0.017 µM
SMILES: [2H]C([2H])([2H])c1nsc(-c2nnc3n2CCN(C(=O)c2ccc(F)cc2)[C@@H]3C)n1 [Deuterated fezolinetant, (R)-(4-fluorophenyl)-(8-methyl-3-(3-(methyl-d3)-1,2,4-thiadiazol-5-yl)-5,6-dihydro-[1,2,4]trizolo[4,3-a]pyrazin-7(8H)-yl)methanone]
